Source: ChEMBL document CHEMBL1201862, “PubChem BioAssay data set” (2004)
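Cultured in 96-well plates, cells were exposed to test compound for 48 hours across five concentrations. The concentration for 50% growth inhibition is given as GI50.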 Calls of active or inactive are those of the source. Cut-off read from the data, not from the text of the source: active = GI50 up to about 1.1 µM and inactive = higher.

Legend:
Assay in all cases: NCI-60 cell line screen, 48 h
ACHN = tested on: ACHN
HCC 2998 = tested on: HCC 2998
HOP-62 = tested on: HOP-62
HT-29 = tested on: HT-29
MDA-MB-435 = tested on: MDA-MB-435
MDA-N = tested on: MDA-N
NCI-H226 = tested on: NCI-H226
NCI-H23 = tested on: NCI-H23
NCI-H522 = tested on: NCI-H522
RXF 393 = tested on: RXF 393
SF-295 = tested on: SF-295
SF-539 = tested on: SF-539
SK-MEL-28 = tested on: SK-MEL-28
SK-MEL-2 = tested on: SK-MEL-2
SN12C = tested on: SN12C
SNB-19 = tested on: SNB-19
TK-10 = tested on: TK-10
U-251 = tested on: U-251
UACC-62 = tested on: UACC-62
UO-31 = tested on: UO-31

Row | SMILES | GI50 (ACHN) | GI50 (HCC 2998) | GI50 (HOP-62) | GI50 (HT-29) | GI50 (MDA-MB-435) | GI50 (MDA-N) | GI50 (NCI-H226) | GI50 (NCI-H23) | GI50 (NCI-H522) | GI50 (RXF 393) | GI50 (SF-295) | GI50 (SF-539) | GI50 (SK-MEL-28) | GI50 (SK-MEL-2) | GI50 (SN12C) | GI50 (SNB-19) | GI50 (TK-10) | GI50 (U-251) | GI50 (UACC-62) | GI50 (UO-31)
1 | CC(=O)NNc1nc(C)c(C(/C=C/c2ccc(NC(C)=O)cc2)=N/NS(=O)(=O)c2ccc(C)cc2)s1 | > 100 µM (inactive) | > 100 µM (inactive) | > 100 µM (inactive) | > 100 µM (inactive) | > 100 µM (inactive) | > 100 µM (inactive) | > 100 µM (inactive) | > 100 µM (inactive) | > 100 µM (inactive) | > 100 µM (inactive) | 27.9 µM (inactive) | > 100 µM (inactive) | > 100 µM (inactive) | > 100 µM (inactive) | > 100 µM (inactive) | > 100 µM (inactive) | > 100 µM (inactive) | > 100 µM (inactive) | > 100 µM (inactive) | > 100 µM (inactive)
2 | Cc1nc2ccccc2nc1-c1ccc(/N=[N+](\[O-])c2ccc(-c3nc4ccccc4nc3C)cc2)cc1 | > 55.7 µM (inactive) | > 100 µM (inactive) | 23.9 µM (inactive) | > 100 µM (inactive) | > 100 µM (inactive) | > 100 µM (inactive) | > 74.8 µM (inactive) | > 83.4 µM (inactive) | > 63.4 µM (inactive) | 28.8 µM (inactive) | 59.6 µM (inactive) | > 50.5 µM (inactive) | > 100 µM (inactive) | > 68.1 µM (inactive) | > 92.7 µM (inactive) | 48.8 µM (inactive) | 20.1 µM (inactive) | 27.5 µM (inactive) | > 93.5 µM (inactive) | > 81.3 µM (inactive)
3 | N=C(N)N/N=C\c1c(-c2ccccc2)nc2sccn12 | 16.9 µM (inactive) | 4.54 µM (inactive) | 15.7 µM (inactive) | 15.3 µM (inactive) | 15.6 µM (inactive) | 14.1 µM (inactive) | 17.6 µM (inactive) | 12.5 µM (inactive) | 12.1 µM (inactive) | 13.4 µM (inactive) | 14.7 µM (inactive) | 16.5 µM (inactive) | 15.7 µM (inactive) | 15.1 µM (inactive) | 15.4 µM (inactive) | 14.3 µM (inactive) | 17.4 µM (inactive) | 15.2 µM (inactive) | 15.9 µM (inactive) | 17.8 µM (inactive)
4 | CCOP(=O)(OCC)C1(O)CC(n2cc(C)c(=O)[nH]c2=O)OC1CO (stereo not given) | > 100 µM (inactive) | > 100 µM (inactive) | > 100 µM (inactive) | > 100 µM (inactive) | > 100 µM (inactive) | > 100 µM (inactive) | > 100 µM (inactive) | > 100 µM (inactive) | > 100 µM (inactive) | > 100 µM (inactive) | > 100 µM (inactive) | > 100 µM (inactive) | > 100 µM (inactive) | > 100 µM (inactive) | > 100 µM (inactive) | > 100 µM (inactive) | > 100 µM (inactive) | > 100 µM (inactive) | > 100 µM (inactive) | > 100 µM (inactive)
5 | COc1cc(C)c2c(c1C=O)Oc1c(c(C)c(O)c3c1C(O)OC3=O)OC2=O (stereo not given) [STICTIC ACID] | 22 µM (inactive) | 20.2 µM (inactive) | 70.1 µM (inactive) | 41.8 µM (inactive) | 50.5 µM (inactive) | 17.5 µM (inactive) | 37.6 µM (inactive) | 26.5 µM (inactive) | 24.9 µM (inactive) | 32.5 µM (inactive) | 49.2 µM (inactive) | 31.5 µM (inactive) | > 100 µM (inactive) | > 10 µM (inactive) | > 100 µM (inactive) | 14.5 µM (inactive) | > 100 µM (inactive) | 33.5 µM (inactive) | 25.6 µM (inactive) | 29.1 µM (inactive)
6 | CC(C)=CCC(O)C1=CC(=O)c2c(O)ccc(O)c2C1=O (stereo not given) | 0.525 µM (active) | 1.74 µM (inactive) | 1.82 µM (inactive) | 1.97 µM (inactive) | 1.31 µM (inactive) | 0.805 µM (active) | 1.01 µM (active) | 1.13 µM (inactive) | 0.258 µM (active) | 0.745 µM (active) | 2.78 µM (inactive) | 1.61 µM (inactive) | 1.48 µM (inactive) | 1.95 µM (inactive) | 0.664 µM (active) | 2.36 µM (inactive) | 1.53 µM (inactive) | 2.1 µM (inactive) | 1.58 µM (inactive) | 1.38 µM (inactive)
7 | COc1ccc(Nc2[nH]c(C(C)=O)c(N)c2C(=S)Nc2ccccc2)cc1 | 77.6 µM (inactive) | 28.2 µM (inactive) | > 100 µM (inactive) | 35.3 µM (inactive) | 49.4 µM (inactive) | 76.4 µM (inactive) | 36.1 µM (inactive) | 65 µM (inactive) | 36.6 µM (inactive) | 16.6 µM (inactive) | 61.5 µM (inactive) | 73.1 µM (inactive) | 36.2 µM (inactive) | 32.9 µM (inactive) | 86.7 µM (inactive) | 82.8 µM (inactive) | 68.9 µM (inactive) | 43.8 µM (inactive) | 25.9 µM (inactive) | 51.6 µM (inactive)
8 | CCOC(=O)/C=C(/C(=O)OCC)n1cc(C)c(=O)n(Cc2cn(CCCCOC(C)=O)nn2)c1=O | 5.09 µM (inactive) | 18.3 µM (inactive) | 33.6 µM (inactive) | 8.05 µM (inactive) | 10.7 µM (inactive) | 35 µM (inactive) | 18.4 µM (inactive) | 16.5 µM (inactive) | 1.88 µM (inactive) | 17.6 µM (inactive) | 33.1 µM (inactive) | 4.54 µM (inactive) | 13.4 µM (inactive) | 20.1 µM (inactive) | 23.6 µM (inactive) | 18.8 µM (inactive) | 4.67 µM (inactive) | 18.5 µM (inactive) | 14.7 µM (inactive) | 15.1 µM (inactive)
